According to PubChem BioAssay AID248 (DTP/NCI, 2004):
Several values for one entry are separate records, joined by “and”; a condition that tells them apart may be missing. Equal entries are not always repeated. Toxic doses and inconclusive results are not listed. Rule as the data show it: active = T/C of 150% or more; inactive = T/C below 125%.

System: L1210 leukemia ip in BDF1 mice, survival T/C
Assay: NCI In Vivo Anticancer Drug Screen. Data for tumor model L1210 Leukemia (intraperitoneal) in B6D2F1 (BDF1) mice
Conditions: endpoint: mean survival time, higher = longer survival
Outline: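 Tumor was transplanted into mice, which were then dosed with test compound or vehicle alone. Survival was recorded for each group, and the treated figure was expressed relative to the control figure.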

[1] = dose: 100.0 mg/kg/injection, schedule: Q01DX001 (ip), vehicle: carboxymethylcellulose (CMC)
[2] = dose: 100.0 mg/kg/injection, schedule: Q04DX003 (ip), vehicle: Klucel (hydroxypropylcellulose) (HPC)
[3] = dose: 200.0 mg/kg/injection, schedule: Q04DX003 (ip), vehicle: Klucel (hydroxypropylcellulose) (HPC)
[4] = dose: 400.0 mg/kg/injection, schedule: Q04DX003 (ip), vehicle: Klucel (hydroxypropylcellulose) (HPC)
[5] = dose: 50.0 mg/kg/injection, schedule: Q01DX001 (ip), vehicle: saline
[6] = dose: 100.0 mg/kg/injection, schedule: Q01DX001 (ip), vehicle: saline
[7] = dose: 200.0 mg/kg/injection, schedule: Q01DX001 (ip), vehicle: saline
[8] = dose: 400.0 mg/kg/injection, schedule: Q01DX001 (ip), vehicle: saline
[9] = dose: 100.0 mg/kg/injection, schedule: Q01DX009 (ip), vehicle: Klucel (hydroxypropylcellulose) (HPC)
[10] = dose: 200.0 mg/kg/injection, schedule: Q01DX009 (ip), vehicle: Klucel (hydroxypropylcellulose) (HPC)
[11] = dose: 400.0 mg/kg/injection, schedule: Q01DX009 (ip), vehicle: Klucel (hydroxypropylcellulose) (HPC)

Measured: T/C

CCCCCCCCCCCC[n+]1ccc2ccccc2c1
inactive: dose: 0.05 mg/kg/injection, schedule: Q01DX001 (ip), vehicle: saline 97 % of control | dose: 0.1 mg/kg/injection, schedule: Q01DX001 (ip), vehicle: saline 105 % of control | dose: 0.2 mg/kg/injection, schedule: Q01DX001 (ip), vehicle: saline 100 % of control | dose: 0.4 mg/kg/injection, schedule: Q01DX001 (ip), vehicle: saline 102 % of control | dose: 0.5 mg/kg/injection, schedule: Q01DX001 (ip), vehicle: saline 106 % of control | dose: 0.8 mg/kg/injection, schedule: Q01DX001 (ip), vehicle: saline 100 % of control | dose: 1.0 mg/kg/injection, schedule: Q01DX001 (ip), vehicle: saline 104 % of control | dose: 2.0 mg/kg/injection, schedule: Q01DX001 (ip), vehicle: carboxymethylcellulose (CMC) 109 % of control | dose: 2.0 mg/kg/injection, schedule: Q01DX001 (ip), vehicle: saline 104 % of control | dose: 4.0 mg/kg/injection, schedule: Q01DX001 (ip), vehicle: carboxymethylcellulose (CMC) 96 % of control and 97 % of control | dose: 4.0 mg/kg/injection, schedule: Q01DX001 (ip), vehicle: saline 103 % of control | dose: 8.0 mg/kg/injection, schedule: Q01DX001 (ip), vehicle: carboxymethylcellulose (CMC) 90 % of control and 91 % of control | dose: 8.0 mg/kg/injection, schedule: Q01DX001 (ip), vehicle: saline 96 % of control | dose: 16.0 mg/kg/injection, schedule: Q01DX001 (ip), vehicle: carboxymethylcellulose (CMC) 102 % of control | dose: 8.0 micrograms/kg/injection, schedule: Q01DX015 (ip), vehicle: saline 88 % of control | dose: 16.0 micrograms/kg/injection, schedule: Q01DX015 (ip), vehicle: saline 92 % of control | dose: 32.0 micrograms/kg/injection, schedule: Q01DX015 (ip), vehicle: saline 96 % of control | dose: 64.0 micrograms/kg/injection, schedule: Q01DX015 (ip), vehicle: saline 91 % of control

COc1ccc(C=Nc2cc(Cl)ccc2O)cc1
inactive: [1] 89 % of control | dose: 200.0 mg/kg/injection, schedule: Q01DX001 (ip), vehicle: carboxymethylcellulose (CMC) 95 % of control | dose: 400.0 mg/kg/injection, schedule: Q01DX001 (ip), vehicle: carboxymethylcellulose (CMC) 95 % of control

O=C(O)CCCCCCCCCCCO
inactive: [2] 100 % of control | [3] 97 % of control | [4] 91 % of control

Nc1ccn(C2CCCO2)c(=O)n1 (stereo not drawn)
inactive: [5] 101 % of control | [6] 95 % of control | [7] 95 % of control | [8] 95 % of control

CC1(C)SC2C(NC(=O)C(C(=O)O)c3ccccc3)C(=O)N2C1C(=O)O (stereo not drawn)
inactive: dose: 25.0 mg/kg/injection, schedule: Q01DX009 (ip), vehicle: saline 103 % of control | [5] 107 % of control | dose: 50.0 mg/kg/injection, schedule: Q01DX009 (ip), vehicle: saline 103 % of control | [6] 95 % of control | dose: 100.0 mg/kg/injection, schedule: Q01DX009 (ip), vehicle: saline 100 % of control and 101 % of control | [7] 102 % of control | dose: 200.0 mg/kg/injection, schedule: Q01DX009 (ip), vehicle: saline 105 % of control | [8] 101 % of control | dose: 400.0 mg/kg/injection, schedule: Q01DX009 (ip), vehicle: saline 100 % of control

CC(C)CC(=O)Nc1ccc(S(=O)(=O)Cl)cc1
inactive: dose: 100.0 mg/kg/injection, schedule: Q01DX009 (ip), vehicle: saline with Tween-80 106 % of control | dose: 100.0 mg/kg/injection, schedule: Q04DX003 (ip), vehicle: saline with Tween-80 92 % of control | dose: 200.0 mg/kg/injection, schedule: Q01DX009 (ip), vehicle: saline with Tween-80 101 % of control | dose: 200.0 mg/kg/injection, schedule: Q04DX003 (ip), vehicle: saline with Tween-80 86 % of control | dose: 400.0 mg/kg/injection, schedule: Q01DX009 (ip), vehicle: saline with Tween-80 94 % of control | dose: 400.0 mg/kg/injection, schedule: Q04DX003 (ip), vehicle: saline with Tween-80 89 % of control

Cc1nc(N)nc(N)c1CCCc1ccccc1
inactive: dose: 1.56 mg/kg/injection, schedule: Q01DX001 (ip), vehicle: saline with Tween-80 93 % of control | dose: 3.13 mg/kg/injection, schedule: Q01DX001 (ip), vehicle: saline with Tween-80 93 % of control | dose: 6.25 mg/kg/injection, schedule: Q01DX001 (ip), vehicle: saline with Tween-80 95 % of control and 97 % of control

CSc1ccc(NC(=O)Nc2cccc(F)c2)cc1
inactive: dose: 100.0 mg/kg/injection, schedule: Q01DX009 (ip), vehicle: other 108 % of control | dose: 200.0 mg/kg/injection, schedule: Q01DX009 (ip), vehicle: other 96 % of control

COc1ccc(OC)c(NC(=O)Oc2ccc3c(C)cc(=O)oc3c2)c1
inactive: [9] 101 % of control | [10] 97 % of control | [11] 87 % of control

O=C1C(Br)=CC(Br)=C/C1=N/Br
inactive: dose: 50.0 mg/kg/injection, schedule: Q04DX003 (ip), vehicle: Klucel (hydroxypropylcellulose) (HPC) 108 % of control | [2] 97 % of control | [3] 93 % of control

CN(C)Cc1cccc([N+](=O)[O-])c1
inactive: dose: 25.0 mg/kg/injection, schedule: Q04DX003 (ip), vehicle: saline 88 % of control | dose: 50.0 mg/kg/injection, schedule: Q04DX003 (ip), vehicle: saline 98 % of control | dose: 100.0 mg/kg/injection, schedule: Q04DX003 (ip), vehicle: saline 102 % of control

O=C(O)/C=C/C(=O)Nc1ccccc1NC(=O)/C=C/C(=O)O
inactive: [9] 101 % of control | [10] 92 % of control | [11] 97 % of control

[O-]c1c[n+](C23CCC(c4ccccc42)c2ccccc23)no1
inactive: [9] 102 % of control | [2] 100 % of control | [10] 102 % of control | [3] 103 % of control | [11] 95 % of control | [4] 100 % of control

O/N=C\CCC/C=N/O
inactive: [9] 98 % of control | [2] 100 % of control | [10] 91 % of control | [3] 94 % of control | [4] 103 % of control

O=C(CCN1CC1)OCCCCOC(=O)CCN1CC1
inactive: dose: 2.5 mg/kg/injection, schedule: Q01DX009 (ip), vehicle: saline 113 % of control | dose: 5.0 mg/kg/injection, schedule: Q01DX009 (ip), vehicle: saline 110 % of control | dose: 6.6 mg/kg/injection, schedule: Q01DX009 (ip), vehicle: saline 94 % of control and 102 % of control | dose: 10.0 mg/kg/injection, schedule: Q01DX009 (ip), vehicle: saline 102 % of control | dose: 15.0 mg/kg/injection, schedule: Q01DX009 (ip), vehicle: saline 100 % of control and 107 % of control | dose: 20.0 mg/kg/injection, schedule: Q01DX009 (ip), vehicle: saline 104 % of control | dose: 20.0 mg/kg/injection, schedule: Q04DX003 (ip), vehicle: saline 115 % of control | dose: 40.0 mg/kg/injection, schedule: Q04DX003 (ip), vehicle: saline 104 % of control | dose: 80.0 mg/kg/injection, schedule: Q04DX003 (ip), vehicle: saline 91 % of control

O=[N+]([O-])c1ccc(-c2cc3ccccc3[n+]([O-])c2)cc1
inactive: [6] 98 % of control | [7] 101 % of control | [8] 101 % of control

O=C(O)/C(F)=C/c1ccccc1
inactive: dose: 50.0 mg/kg/injection, schedule: Q01DX001 (ip), vehicle: carboxymethylcellulose (CMC) 111 % of control | [1] 103 % of control

O=c1cccc(CCCCCCc2cccc(=O)[nH]2)[nH]1
inactive: [6] 106 % of control | [7] 95 % of control | [8] 96 % of control
